In patent US8697356B2, “Single-molecule-format probe and utilization thereof” (National Institute of Advanced Industrial Science and …, priority 2008, dated 2014):

Experiments:
Type in all cases: cell-based, African green monkey
cytosolic Ca^2+ [1] = experiment: Retention of Ca^2+ levels after wash-out, COS-7 cells carrying pCPG (Example 9); conditions: CPG; 20 minutes stimulation; thapsigargin or cyproheptadine added to 0.5 mM histamine or ATP; 2 μM ionomycin
Experimental: Retention of cytosolic calcium Ca^2+ levels in response to an external stimulus were monitored on the basis of the luminescence intensities from COS-7 cells carrying pCPG.
The cells were washed twice with PBS after ligand stimulation, and harvested by trypsinization and centrifugation. This wash-out terminates the external stimulation of ligands for elevating cytosolic Ca^2+ levels. The cells were resuspended with a 40 mL substrate buffer carrying coelenterazine, and then transferred to a test tube to determine the luminescence with a luminometer (Minilumat LB9506).

cytosolic Ca^2+ [2] = experiment: Ca^2+ dynamics in COS-7 cells transfected with pCPG or pSMG (Example 8); conditions: 1 mM histamine, CPG
From the text: The dynamics of cytosolic Ca^2+ in COS-7 cells were monitored in the cells transfected with pCPG and in the cells transfected with SMG shown in FIG. 14 as a control. The free Ca^2+ was a representative second messenger in living mammalian cells. […] The outer terminals were respectively fused with M13 peptide and calmodulin. SMG is different from CPG in that calmodulin and M13 peptide are linked between N- and C-terminal fragments. That is, the luciferases are not circularly permutated in SMG.
As in Example 2, COS-7 cells cultured in a black, glass-bottom plate (24-well) were transfected with pCPG or pSMG, and stocked in a cell incubator for 16 hours. The cells were saturated with a 300 μL Hank's balanced salt solution (HBSS) buffer containing coelenterazine.

cytoplasm Ca^2+ = experiment: Ligand affinity of CPG and CPG-ctrl, histamine-triggered Ca^2+ (Example 12)
From the text: First, GLuc was dissected at Q105, and the original N- and C-terminals of the fragments were circularly permutated with a 10 GS linker. The outer terminals were respectively fused with M13 and CaM to form CPG. CPG-ctrl which is different from CPG only in that GLuc was not circularly permutated was parallelly formed as a control probe of CPG by the use of the same components as CPG (FIG. 20).
As in Example 2, COS-7 cells cultured in a black, glass-bottom plate (24-well) were transiently transfected with pCPG or pCPG-ctrl, and stocked in a cell incubator for 16 hours. The cells were saturated with a 300 μL HBSS buffer containing coelenterazine.

COS-7 cells = experiment: Saturation rate of substrate in COS-7 cells carrying pCPG-ctrl (Example 13); conditions: HBSS buffer
Experimental: A reaction rate of coelenterazine saturation in COS-7 cells was monitored. […] The cells on the plate were washed once with HBSS buffer and were saturated with 500 μL HBSS buffer. The luminescence variances after coelenterazine addition were monitored with a bioluminescence plate reader (Mithras LB 940; Berthold).

For `Nc1ncnc2c1ncn2[C@@H]1O[C@H](COP(=O)(O)OP(=O)(O)OP(=O)(O)O)[C@@H](O)[C@H]1O` [ATP], the “cytosolic Ca^2+ levels (luminescence) after wash-out” value (from here on “cytosolic Ca^2+ levels”) (cytosolic Ca^2+ [1]) was “quickly decreased”.

`NCCc1c[nH]cn1` [histamine] was tested, and the “time to reach plateau of luminescence” value (cytosolic Ca^2+ [2]) was roughly 10 min, the “concentration from which CPG started sensing” value (cytoplasm Ca^2+) was 0.25 mM and the “time to reach plateau of luminescence” value (cytoplasm Ca^2+; 1 mM histamine, CPG) was roughly 10 min.

For `C/C=C(/C)C(=O)O[C@H]1C(C)=C2[C@H]([C@@H]1OC(=O)CCCCCCC)[C@@](C)(OC(C)=O)C[C@H](OC(=O)CCC)[C@@]1(O)[C@H]2OC(=O)[C@@]1(C)O` [thapsigargin], the “cytosolic Ca^2+ levels” value (cytosolic Ca^2+ [1]) was “retained”.

For `C[C@H](CCC(=O)O)C[C@H](C)C[C@H](C)C(=O)/C=C(\O)[C@H](C)C[C@H](C)C/C=C/[C@@H](C)[C@@H](O)[C@@H](C)[C@@H](O)C[C@@H]1CC[C@@](C)([C@H]2CC[C@@](C)([C@@H](C)O)O2)O1` [Ionomycin, ionomycin], the “cytosolic Ca^2+ levels” value (cytosolic Ca^2+ [1]) was “retaining certain levels”.

For `Oc1ccc(Cc2nc3c(Cc4ccccc4)nc(-c4ccc(O)cc4)cn3c2O)cc1` [coelenterazine], the “time in which the COS-7 cells were saturated” value (COS-7 cells) was 8.5 min.
